These compounds were tested against T1, AMPA receptor (human GluR1 flip/stargazin expressed in CHO-K1 cells) (Homo sapiens, UniProt P42261) (assay: AMPA receptor function enhancing activity using calcium influx as index). Conditions: test compound 30 μM with 3 mM glutamic acid, change in fluorescence level in 3 min, 100% = 3 mM glutamic acid + 300 μM cyclothiazide, 0% = 3 mM glutamic acid only.
T1 construct: expressed in transfected cells; host or cells: CHO-K1
Assay type: cell-based
Source text: Human GluR1 flip cDNA was amplified by PCR using forward primer […] (SEQ ID NO: 1) and reverse primer […] (SEQ ID NO: 2) artificially synthesized using human brain-derived cDNA (BD Bio science) as a template. The amplified product was digested with restriction enzymes EcoRI, NotI (TAKARA SHUZO CO. LTD.), and incorporated into the same site of pcDNA3.1(+) (Invitrogen) to construct pcDNA3.1(+)/human GluR1 flip gene. Human stargazin cDNA was amplified by PCR using forward primer […] (SEQ ID NO: 3) and reverse primer […] (SEQ ID NO: 4) artificially synthesized using human hippocampus cDNA as a template. The amplified product was digested with restriction enzymes XhoI, BamHI (TAKARA SHUZO CO. LTD.), and incorporated into the same site of pcDNA3.1(−) (Invitrogen) to construct pcDNA3.1 Zeo(−)/human stargazin gene.
CHO-K1 cells passaged in a culture medium (Ham's F12 medium (Invitrogen) added with 10% inactivated fetal bovine serum (Morgate) and penicillin, streptomycin (Invitrogen)) were detached with 0.05% trypsin, 0.53 mM EDTA (Invitrogen) diluted with D-PBS(−). The detached cells were suspended in a culture medium, and recovered by a centrifugation operation at 1,000 rpm. The recovered cells were suspended again in D-PBS(−), and added to a 0.4 cm electroporation cuvette (BioRad). pcDNA3.1(+)/human GluR1 flip gene (5 μg) and pcDNA3.1 Zeo(−)/human stargazin gene (15 μg) were added, and the mixture was introduced into CHO-K1 cells using Gene Pulser II (BioRad) under the conditions of 950 μFd, […]. The introduced cells were cultured overnight in a culture medium and, the next day, plated in a 96 well plate at 250 cells/well using a selection medium (culture medium added with Zeocin (Invitrogen) to 250 μg/mL). Clones showing drug resistance were selected, and GluR1 flip/stargazin expressing clones were selected by an assay method using calcium influx as an index as shown below.
CHO-K1/GluR1 flip/stargazin expressing cells were plated on a 96 well black transparent bottom plate (Costar) at 2×10^4 cells/well, and cultured in a 37° C., CO2 incubator (SANYO Electric Co., Ltd.) for 2 days. The medium in the cell plate was removed, and assay buffer A (D-MEM (Invitrogen), 0.1% BSA (Serogical Protein), 20 mM HEPES (Invitrogen)) was added at 50 μL/well. A calcium indicator (Calcium 4 Assay Kit, Invitrogen) added with 2.5 mM probenecid (Invitrogen) was added at 50 μL/well and the well was left standing in 37° C., CO2 incubator for 1 hr. The cell plate was set in CellLux (PerkinElmer), a mixture (50 μL) of 9 mM glutamic acid diluted with assay buffer B (HBSS (Invitrogen), 0.1% BSA, 20 mM HEPES) (final concentration 3 mM) and a test compound (test compound concentration 30 μM) was added, and the amount of change in fluorescence level in 3 min was measured. In the definition here, the amount of change in fluorescence level of well added with glutamic acid at final concentration 3 mM and 300 μM cyclothiazide (TOCRIS) is 100%, the amount of change in fluorescence level of well added only with glutamic acid at final concentration 3 mM is 0%, and the compound activity was calculated according to the following formula. activity(%)=(X−C)/(T−C)×100 T: amount of change in fluorescence level of well added with glutamic acid at final concentration 3 mM and 300 μM cyclothiazide C: amount of change in fluorescence level of well added only with glutamic acid at final concentration 3 mM X: amount of change in fluorescence level of well added with test compound

T1 sequence (P42261 19-906 isoform P42261-2 limits assumed): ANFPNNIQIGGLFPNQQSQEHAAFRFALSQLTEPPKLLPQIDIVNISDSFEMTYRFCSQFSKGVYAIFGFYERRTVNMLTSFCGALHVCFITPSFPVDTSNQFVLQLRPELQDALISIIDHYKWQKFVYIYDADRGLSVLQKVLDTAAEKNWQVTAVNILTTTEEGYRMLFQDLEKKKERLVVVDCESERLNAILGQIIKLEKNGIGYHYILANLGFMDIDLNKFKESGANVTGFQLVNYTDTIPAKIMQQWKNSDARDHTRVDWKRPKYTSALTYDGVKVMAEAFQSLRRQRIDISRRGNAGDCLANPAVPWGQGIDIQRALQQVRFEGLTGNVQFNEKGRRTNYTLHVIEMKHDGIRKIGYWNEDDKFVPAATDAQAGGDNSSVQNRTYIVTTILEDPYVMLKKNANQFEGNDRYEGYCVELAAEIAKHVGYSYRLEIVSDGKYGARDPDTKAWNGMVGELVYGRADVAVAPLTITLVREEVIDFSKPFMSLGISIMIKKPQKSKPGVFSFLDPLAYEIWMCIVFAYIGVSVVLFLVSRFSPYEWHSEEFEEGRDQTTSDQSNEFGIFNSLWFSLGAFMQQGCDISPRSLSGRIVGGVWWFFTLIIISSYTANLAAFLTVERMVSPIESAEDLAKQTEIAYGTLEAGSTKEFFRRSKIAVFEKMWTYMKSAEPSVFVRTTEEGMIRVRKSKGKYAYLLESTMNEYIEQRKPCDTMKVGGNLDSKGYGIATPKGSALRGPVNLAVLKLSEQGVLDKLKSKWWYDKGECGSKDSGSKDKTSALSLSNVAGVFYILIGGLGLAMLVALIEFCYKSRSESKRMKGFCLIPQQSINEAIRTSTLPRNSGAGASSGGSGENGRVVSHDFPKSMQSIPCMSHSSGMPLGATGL
T1 sequence (Q9Y698 whole entry partner): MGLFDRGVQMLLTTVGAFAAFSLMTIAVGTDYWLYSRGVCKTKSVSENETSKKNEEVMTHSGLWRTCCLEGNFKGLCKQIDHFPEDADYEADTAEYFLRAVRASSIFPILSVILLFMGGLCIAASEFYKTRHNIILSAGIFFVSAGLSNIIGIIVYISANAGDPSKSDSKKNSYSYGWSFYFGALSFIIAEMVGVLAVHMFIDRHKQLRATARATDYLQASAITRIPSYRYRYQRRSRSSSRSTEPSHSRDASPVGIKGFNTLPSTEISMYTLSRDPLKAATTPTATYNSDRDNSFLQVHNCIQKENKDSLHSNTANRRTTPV

activity (%)	SMILES
84%	Cc1cc(F)ccc1Oc1ccc(C2CCCN3CCS(=O)(=O)N=C23)cc1 (stereo not drawn) [Example 145, 9-[4-(4-fluoro-2-methylphenoxy)phenyl]-3,4,6,7,8,9-hexahydropyrido[2,1-c][1,2,4]thiadiazine 2,2-dioxide]
66%	O=S1(=O)CCN2C=CC=C(Oc3ccc4c(c3)CCCC4)C2=N1 [Example 237, 9-(5,6,7,8-tetrahydronaphthalen-2-yloxy)-3,4-dihydropyrido[2,1-c][1,2,4]thiadiazine 2,2-dioxide]
80%	O=S1(=O)CCN2C=CC=C(c3ccc(OCC(F)(F)F)cc3)C2=N1 [Example 264, 9-[4-(2,2,2-trifluoroethoxy)phenyl]-3,4-dihydropyrido[2,1-c][1,2,4]thiadiazine 2,2-dioxide]
74%	CC1CC(c2ccc(Oc3cccc(C(C)(F)F)c3)cc2)C2=NS(=O)(=O)CCN2C1 (racemic) [Example 172, 9-{4-[3-(1,1-difluoroethyl)phenoxy]phenyl}-7-methyl-3,4,6,7,8,9-hexahydropyrido[2,1-c][1,2,4]thiadiazine 2,2-dioxide]
79%	O=S1(=O)CCN2CCC[C@@H](c3ccc(-c4ccc(F)c(Cl)c4)cc3)C2=N1 [Example 226, (9S)-9-(3′-chloro-4′-fluorobiphenyl-4-yl)-3,4,6,7,8,9-hexahydropyrido[2,1-c][1,2,4]thiadiazine 2,2-dioxide]
76%	CC(F)(F)c1cccc(Oc2ccc(C3CCCN4CCS(=O)(=O)N=C34)cc2)c1 (stereo not drawn) [Example 158, 9-{4-[3-(1,1-difluoroethyl)phenoxy]phenyl}-3,4,6,7,8,9-hexahydropyrido[2,1-c][1,2,4]thiadiazine 2,2-dioxide]
69%	O=S1(=O)CCN2CCCC(c3ccc(OC(F)(F)F)cc3)C2=N1 (stereo not drawn) [Example 179, 9-[4-(trifluoromethoxy)phenyl]-3,4,6,7,8,9-hexahydropyrido[2,1-c][1,2,4]thiadiazine 2,2-dioxide]
63%	COc1cc(Oc2ccc(C3CCCN4CCS(=O)(=O)N=C34)cc2)ccc1Cl (stereo not drawn) [Example 155, 9-[4-(4-chloro-3-methoxyphenoxy)phenyl]-3,4,6,7,8,9-hexahydropyrido[2,1-c][1,2,4]thiadiazine 2,2-dioxide]
79%	CC(F)(F)c1ccc(C2CCCN3CCS(=O)(=O)N=C23)cc1 (stereo not drawn) [Example 174, 9-[4-(1,1-difluoroethyl)phenyl]-3,4,6,7,8,9-hexahydropyrido[2,1-c][1,2,4]thiadiazine 2,2-dioxide]

Same assay, conditions: test compound 30 μM with glutamic acid final 3 mM, change in fluorescence in 3 min, 100% = 3 mM glutamic acid + 300 μM cyclothiazide, 0% = 3 mM glutamic acid only

activity (%)	SMILES
64%	O=S1(=O)CCN2CCCC(c3ccc(C4(c5ccccc5)CCC4)cc3)C2=N1 (stereo not drawn) [Example 321, 9-[4-(1-phenylcyclobutyl)phenyl]-3,4,6,7,8,9-hexahydropyrido[2,1-c][1,2,4]thiadiazine 2,2-dioxide]
87%	Cc1ccc(-c2ccc(C3CCCN4CCS(=O)(=O)N=C34)cc2)cc1 (stereo not drawn) [Example 105, 9-(4′-methylbiphenyl-4-yl)-3,4,6,7,8,9-hexahydropyrido[2,1-c][1,2,4]thiadiazine 2,2-dioxide]
84%	O=S1(=O)CCN2C=CC=C(c3ccc(Oc4cccc(Cl)c4)cc3)C2=N1 [Example 85, 9-[4-(3-chlorophenoxy)phenyl]-3,4-dihydropyrido[2,1-c][1,2,4]thiadiazine 2,2-dioxide]
58%	Cc1cc(C(F)(F)F)ccc1Oc1ccc(C2CCCN3CCS(=O)(=O)N=C23)cc1 (stereo not drawn) [Example 122, 9-{4-[2-methyl-4-(trifluoromethyl)phenoxy]phenyl}-3,4,6,7,8,9-hexahydropyrido[2,1-c][1,2,4]thiadiazine 2,2-dioxide]
84%	Cc1cc(C2=CC=CN3CCS(=O)(=O)N=C23)ccc1-c1ccccc1 [Example 101, 9-(2-methylbiphenyl-4-yl)-3,4-dihydropyrido[2,1-c][1,2,4]thiadiazine 2,2-dioxide]
63%	COc1ccc2ccc(OC3CCCN4CCS(=O)(=O)N=C34)cc2c1 (stereo not drawn) [Example 60, 9-[(7-methoxynaphthalen-2-yl)oxy]-3,4,6,7,8,9-hexahydropyrido[2,1-c][1,2,4]thiadiazine 2,2-dioxide]
86%	O=S1(=O)CCN2C=CC=C(c3ccc(OC4CC4)cc3)C2=N1 [Example 70, 9-[4-(cyclopropyloxy)phenyl]-3,4-dihydropyrido[2,1-c][1,2,4]thiadiazine 2,2-dioxide]
93%	Cc1cc(C(F)(F)F)nn1-c1ccc(C2=CC=CN3CCS(=O)(=O)N=C23)cc1 [Example 300, 9-{4-[5-methyl-3-(trifluoromethyl)-1H-pyrazol-1-yl]phenyl}-3,4-dihydropyrido[2,1-c][1,2,4]thiadiazine 2,2-dioxide]
83%	CCCOc1ccc(C2=CC=CN3CCS(=O)(=O)N=C23)cc1F [Example 349, 9-(3-fluoro-4-propoxyphenyl)-3,4-dihydropyrido[2,1-c][1,2,4]thiadiazine 2,2-dioxide]
69%	CCc1cccc(Oc2ccc(C3=CC=CN4CCS(=O)(=O)N=C34)cc2)c1 [Example 130, 9-[4-(3-ethylphenoxy)phenyl]-3,4-dihydropyrido[2,1-c][1,2,4]thiadiazine 2,2-dioxide]
59%	Cc1ccc(Oc2ccc(C3CCCN4CCS(=O)(=O)N=C34)cc2)cc1C (stereo not drawn) [Example 135, 9-[4-(3,4-dimethylphenoxy)phenyl]-3,4,6,7,8,9-hexahydropyrido[2,1-c][1,2,4]thiadiazine 2,2-dioxide]
99%	CC(C)(c1ccccc1)c1ccc(C2=CC=CN3CCS(=O)(=O)N=C23)cc1 [Example 325, 9-[4-(1-methyl-1-phenylethyl)phenyl]-3,4-dihydropyrido[2,1-c][1,2,4]thiadiazine 2,2-dioxide]
65%	O=S1(=O)CCN2C=CC=C(c3ccc(OCc4cccc(F)c4)cc3)C2=N1 [Example 82, 9-{4-[(3-fluorobenzyl)oxy]phenyl}-3,4-dihydropyrido[2,1-c][1,2,4]thiadiazine 2,2-dioxide]
78%	O=S1(=O)CCN2CCCC(c3ccc(Oc4ccc(F)c(Cl)c4)cc3)C2=N1 (stereo not drawn) [Example 447, 9-[4-(3-chloro-4-fluorophenoxy)phenyl]-3,4,6,7,8,9-hexahydropyrido[2,1-c][1,2,4]thiadiazine 2,2-dioxide]
76%	O=S1(=O)CCN2CCCC(c3ccc(-n4nc(C(F)(F)F)cc4C4CC4)cc3)C2=N1 (stereo not drawn) [Example 301, 9-{4-[5-cyclopropyl-3-(trifluoromethyl)-1H-pyrazol-1-yl]phenyl}-3,4,6,7,8,9-hexahydropyrido[2,1-c][1,2,4]thiadiazine 2,2-dioxide]
55%	O=S1(=O)CCN2CCCC(c3ccc(Oc4ccccc4Cl)cc3)C2=N1 (stereo not drawn) [Example 433, 9-[4-(2-chlorophenoxy)phenyl]-3,4,6,7,8,9-hexahydropyrido[2,1-c][1,2,4]thiadiazine 2,2-dioxide]
82%	O=S1(=O)CCN2CCCC(COc3ccc4c(c3)CCCC4)C2=N1 (stereo not drawn) [Example 303, 9-[(5,6,7,8-tetrahydronaphthalen-2-yloxy)methyl]-3,4,6,7,8,9-hexahydropyrido[2,1-c][1,2,4]thiadiazine 2,2-dioxide]
98%	CC(C)c1ccc(CCC2=CC=CN3CCS(=O)(=O)N=C23)cc1 [Example 25, 9-{2-[4-(1-methylethyl)phenyl]ethyl}-3,4-dihydropyrido[2,1-c][1,2,4]thiadiazine 2,2-dioxide]

Reference: US8916551B2, “Heterocyclic compound and use thereof” (Takeda Pharmaceutical Company Limited, priority 2010, dated 2014)
